Measured values from ChEMBL document CHEMBL3817821, “Design and synthesis of thiamine analogues to study their binding to the ECF transporter for thiamine in bacteria” (Medchemcomm, 2016).

Assays:
[1] = Binding affinity to His8-tagged Lactococcus lactis ThiT expressed in Lactococcus lactis NZ9000 cells by intrinsic fluorescence titration assay; format: cell-based
[2] = Binding affinity to Lactococcus lactis ThiT Gly129Ala mutant
[3] = Binding affinity to His8-tagged Lactococcus lactis ThiT expressed in Lactococcus lactis NZ9000 cells by isothermal […] analysis; format: cell-based

SMILES	Kd [1] [µM]	Kd [2] [µM]	Kd [3] [µM]
Cc1ncc(Cc2csc(CCO)c2C)c(N)n1 [3-DEAZATHIAMINE]	0.00423		
Cc1c(Cc2cncnc2N)csc1CCO	1.02		
CCc1ncc(Cc2csc(CCO)c2C)c(N)n1	0.00504		
Cc1ncc(C[n+]2csc(CCO)c2C)c(N)n1 [THIAMINE]	0.000122	0.0339	
Cc1c(Cc2cnc(N)nc2N)csc1CCO			2.92
Cc1c(Cc2cnc(C(C)C)nc2N)csc1CCO	0.0136		
Cc1c(Cc2cnc(C(F)(F)F)nc2N)csc1CCO	0.00848		
